In US20070032477A1, “Pteridine derivatives useful for making pharmaceutical compositions” (priority 2003, published 2007):

Experiments:
[1] = test system: mixed lymphocyte reaction (PBMC with allogeneic PBMC or Eppstein-Barr Virus-transformed human B cells as stimulator cells); assay: Mixed lymphocyte reaction (MLR) assay; type: cell-based; settings: lowest concentration giving 50% suppression of the MLR; [3H]-thymidine
Procedure: Pteridine derivatives were first dissolved (10 mM) in dimethylsulfoxide (hereinafter referred as DMSO) and further diluted in culture medium before use for the following in vitro experiments. The commercially available culture medium consisted of RPMI-1640+10% foetal calf serum (FCS). Some pteridine derivatives described in the previous examples (as indicated in table 1) were tested in the following mixed lymphocyte reaction (MLR) assay.
Peripheral blood mononuclear cells (hereinafter referred as PBMC) were isolated from heparinized peripheral blood by density gradient centrifugation over Lymphoprep (Nycomed, Maorstua, Norway). Allogeneic PBMC or Eppstein-Barr Virus-transformed human B cells [commercially available under the trade name RPM11788 (ATCC name CCL156)] which strongly express B7-1 and B7-2 antigens were used as stimulator cells after irradiation with 30 Gy. MLR was performed in triplicate wells. After 5 days incubation at 37° C., 1 μCi [^3H]-thymidine was added to each cup. After a further 16 hours incubation, cells were harvested and counted in a […]. Inhibition of proliferation by a compound (drug) described in some of the previous examples was counted using the formula: [formula] wherein cpm is the thymidine count per minute. The MLR assay is regarded by those skilled in the art as an in vitro analogue of the transplant rejection since it is based on the recognition of allogeneic major histocompatibility antigens on the stimulator leukocytes, by responding lymphocytes.

[2] = test system: production of TNF-α by PBMC in response to stimulation by LPS; assay: TNF-α assay; type: cell-based, human; settings: LPS 1 μg/ml, 72 hours, sandwich ELISA
Procedure: Peripheral blood mononuclear cells (herein referred as PBMC), in response to stimulation by lipopolysaccharide (hereinafter LPS), a gram-negative bacterial endotoxin, produce various […], in particular human TNF-α. Inhibition of the activation of PBMC can therefore be measured by the level of suppression of the production of TNF-α by PBMC in response to stimulation by LPS.
Such inhibition measurement was performed as follows: PBMC were isolated from heparinized peripheral blood by density gradient centrifugation over Lymphoprep (commercially available from Nycomed, Norway). LPS was then added to the PMBC suspension in complete medium (10^6 cells/ml) at a final concentration of 1 μg/ml. The pteridine derivative to be tested was added at different concentrations (0.1 μM, 1 μM and 10 μM) and the cells were incubated at 37° C. for 72 hours in 5% CO2. The supernatants were collected, then TNF-α concentrations were measured with respectively an anti-TNF-α antibody in a sandwich ELISA (Duo Set ELISA human TNFα, commercially available from R&D Systems, United Kingdom). The calorimetric reading of the ELISA was measured by a Multiskan RC plate reader (commercially available from ThermoLabsystems, Finland) at 450 nm (reference wavelength: 690 nm). Data analysis was performed with Ascent software 2.6. (also from ThermoLabsystems, Finland): a standard curve (recombinant human TNFα) was drawn and the amount (pg/ml) of each sample on the standard curve was determined.
The % suppression of human TNFα production by the pteridine derivatives of the invention (drugs) was calculated using the formula: [formula]

Row | Structure (SMILES) | IC50 [1] [nM] | IC50 [2] [nM]
1 | COc1ccc(-c2cnc3nc(N)nc(N4CCN(S(=O)(=O)Cc5ccccc5)CC4)c3n2)cc1OC [Example 43, 2-amino-4-[(N-benzylsulfonyl)-piperazin-1-yl]-6-(3,4-dimethoxyphenyl)pteridine] | 200 | 700
2 | COc1ccc(-c2cnc3nc(N)nc(N4CCN(C(=O)c5ccc(Cl)c(Cl)c5)CC4)c3n2)cc1OC [Example 44, 2-amino-4-[N-(3,4-dichlorobenzoyl)-piperazin-1-yl]-6-(3,4-dimethoxy-phenyl)pteridine] | 200 | 700
3 | COc1ccc(-c2cnc3nc(N)nc(N4CCN(C(=O)Cc5ccc(Cl)cc5)CC4)c3n2)cc1OC [Example 45, 2-amino-4-[N-(4-chlorophenylacetyl)-piperazin-1-yl]-6-(3,4-dimethoxy-phenyl)pteridine] | 90 | 400
4 | COc1ccc(-c2cnc3nc(N)nc(N4CCN(C(=O)OCc5ccccc5)CC4)c3n2)cc1OC [Example 48, 2-amino-4-[(N-benzyloxycarbonyl)-piperazin-1-yl]-6-(3,4-dimethoxy-phenyl)pteridine] | 300 | 80
5 | COc1ccc(-c2cnc3nc(N)nc(N4CCN(C(=S)Oc5ccccc5)CC4)c3n2)cc1OC [Example 51, 2-amino-4-[(N-phenoxythiocarbonyl)-piperazin-1-yl]-6-(3,4-dimethoxy-phenyl)pteridine] | 300 | 40
6 | COc1ccc(-c2cnc3nc(N)nc(N4CCN(C(=O)[C@@H](N)Cc5ccccc5)CC4)c3n2)cc1OC [Example 60, 2-amino-4-[N-(2-(S)-amino-3-phenylpropionyl)-piperazin-1-yl]-6-(3,4-dimethoxy-phenyl)pteridine] | 4100 | 2500
7 | COc1ccc(-c2cnc3nc(N)nc(N4CCN(C/C=C/c5ccccc5)CC4)c3n2)cc1OC [Example 66, 2-amino-4-(N-trans-cinnamylpiperazin-1-yl)-6-(3,4-dimethoxy-phenyl)pteridine] | 800 | 300
8 | COc1ccc(-c2cnc3nc(NCCc4ccccc4)nc(N)c3n2)cc1OC [Example 79, 2-phenylethylamino-4-amino-6-(3,4-dimethoxyphenyl)pteridine] | 4100 | 9800
9 | COc1ccc(-c2cnc3nc(N)nc(N4CCCN(C(=O)COc5ccccc5)CC4)c3n2)cc1OC [Example 89] | 87 | 1200
10 | COc1ccc(-c2cnc3nc(N)nc(N4CCN(C(=O)Oc5ccc(C)cc5)CC4)c3n2)cc1OC [Example 90, 2-amino-4-[(N-4-methyl-phenoxy-carbonyl)-piperazin-1-yl]-6-(3,4-dimethoxyphenyl)pteridine] | 58 | 40
11 | COc1ccc(-c2cnc3nc(N)nc(N4CCN(C(=O)Oc5ccc(Cl)cc5)CC4)c3n2)cc1OC [Example 94] | 100 | 90
12 | COc1ccc(-c2cnc3nc(N)nc(N4CCN(C(=O)Oc5ccccc5Cl)CC4)c3n2)cc1OC [Example 96, 2-amino-4-[N-(2-chloro)-phenoxy-carbonyl-piperazin-1-yl]-6-(3,4-dimethoxyphenyl)pteridine] | 150 | 10
13 | COCCOC(=O)N1CCN(c2nc(N)nc3ncc(-c4ccc(OC)c(OC)c4)nc23)CC1 [Example 97] | 240 | 300
14 | COc1ccc(-c2cnc3nc(N)nc(N4CCN(C(=O)Nc5ccccc5)CC4)c3n2)cc1OC [Example 99, 2-amino-4-(N-phenyl-carbamoyl-piperazin-1-yl)-6-(3,4-dimethoxyphenyl)pteridine] | 3.4 | 90
15 | COc1ccc(-c2cnc3nc(N)nc(N4CCN(C(=O)Nc5ccc(C#N)cc5)CC4)c3n2)cc1OC [Example 102, 2-amino-4-(N-4-cyanophenylcarbamoyl-piperazin-1-yl)-6-(3,4-dimethoxyphenyl)pteridine] | 74 | 630
16 | COc1ccc(-c2cnc3nc(N)nc(N4CCN(C(=O)Nc5cccc(C)c5)CC4)c3n2)cc1OC [Example 103, 2-amino-4-(N-3-methylphenylcarbamoyl-piperazin-1-yl)-6-(3,4-dimethoxyphenyl)pteridine] | 6.5 | 100
17 | COc1ccc(-c2cnc3nc(N)nc(N4CCN(C(=O)NCc5ccc(F)cc5)CC4)c3n2)cc1OC [Example 105, 2-amino-4-(N-4-fluorobenzylcarbamoyl-piperazin-1-yl)-6-(3,4-dimethoxyphenyl)pteridine] | 37 | 700
18 | COc1ccc(-c2cnc3nc(N)nc(N4CCN(C(=O)Nc5ccc(F)c(Cl)c5)CC4)c3n2)cc1OC [Example 106, 2-amino-4-(N-3-chloro-4-fluorophenylcarbamoyl-piperazin-1-yl)-6-(3,4-dimethoxyphenyl)pteridine] | 58 | 1400
19 | CCCCNC(=O)N1CCN(c2nc(N)nc3ncc(-c4ccc(OC)c(OC)c4)nc23)CC1 [Example 109, 2-amino-4-[(N-butyl-carbamoyl-piperazin-1-yl)]-6-(3,4-dimethoxyphenyl)pteridine] | 100 | 400
20 | COc1ccc(-c2cnc3nc(N)nc(N4CCN(C(=O)N(C)c5ccccc5)CC4)c3n2)cc1OC [Example 117, 2-amino-4-(N-methyl-N-phenyl-carbamoyl-piperazin-1-yl)-6-(3,4-dimethoxyphenyl)pteridine] | 72 | 50
21 | COc1ccc(-c2cnc3nc(N)nc(N4CCN(C(=O)N(C)c5ccc(C)cc5)CC4)c3n2)cc1OC [Example 119, 2-amino-4-(N-methyl-N-tolyl-carbamoyl-piperazin-1-yl)-6-(3,4-dimethoxyphenyl)pteridine] | 300 | 260
22 | COc1ccc(-c2cnc3nc(N)nc(N4CCN(CCN(C(C)C)C(C)C)CC4)c3n2)cc1OC [Example 128, 2-amino-4-(1-(2-diisopropylaminoethyl)-piperazino)-6-(3,4-dimethoxyphenyl)pteridine] | 7400 | 3300
23 | COc1ccc(-c2cnc3nc(N)nc(N4CCN(CCN5CCOCC5)CC4)c3n2)cc1OC [Example 129, 2-amino-4-(1-(2-morpholino4-yl-ethyl)-piperazino)-6-(3,4-dimethoxyphenyl)pteridine] | 2500 | 800
24 | COc1ccc(-c2cnc3nc(N)nc(N4CCN(C(=O)CN5CCOCC5)CC4)c3n2)cc1OC [Example 130, 2-amino-4-(4-[2-(piperazin-1-yl)-acetyl]-morpholino)-6-(3,4-dimethoxy-phenyl)pteridine] | 1500 | 1400
25 | CCOC(=O)C(C)N1CCN(c2nc(N)nc3ncc(-c4ccc(OC)c(OC)c4)nc23)CC1 (stereo not shown) [Example 133, 2-amino-4-(2-(piperazin-1-yl)-propionic acid ethyl ester)-6-(3,4-dimethoxyphenyl)pteridine] | 1200 | 330
26 | COc1ccc(-c2cnc3nc(N)nc(N4CCN(Cc5c(Cl)cccc5Cl)CC4)c3n2)cc1OC [Example 137, 2-amino-4-[(2,6-dichlorobenzyl)piperazin-1-yl]-6-(3,4-dimethoxyphenyl)pteridine] | 7600 | 700
27 | COc1ccc(-c2cnc3nc(N)nc(N4CCN(Cc5ccccc5F)CC4)c3n2)cc1OC [Example 141, 2-amino-4-((2-fluorobenzyl)piperazin-1-yl)-6-(3,4-dimethoxyphenyl)pteridine] | 700 | 200
28 | COc1ccc(-c2cnc3nc(N)nc(N4CCN(Cc5ccc(C(C)(C)C)cc5)CC4)c3n2)cc1OC [Example 144, 2-amino-4-((4-tert-butylbenzyl)piperazin-1-yl)-6-(3,4-dimethoxyphenyl)pteridine] | 4300 | 700
29 | COc1ccc(-c2cnc3nc(N)nc(N4CCN(c5ccncc5)CC4)c3n2)cc1OC [Example 145, 2-amino-4-((4-pyridyl)-piperazin-1-yl)-6-(3,4-dimethoxyphenyl)pteridine] | 3500 | 4400
